Measured values from patent publication US20240299385A1 (ReWind Therapeutics NV, priority 2021, published 2024).
pIC50: −log10 of the molar value.

Target: T1, human GPR17 receptor (Homo sapiens, UniProt Q13304)
T1 construct: host or cells: HEK-293
Experiment: Calcium mobilization functional assay (Fluo-8, FLIPR TETRA) in HEK-293 hGPR17 (Gα-q assay)
Format: cell-based
Settings: antagonism of MDL29,951 (~EC80) induced Ca2+ signal; cell line (HEK-293 hGPR17 or HEK-293 Suchi5 hGPR17) not given
In short: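 Fluo-8-loaded HEK-293 hGPR17 cells (60 min dye loading, room temperature) were preincubated with compound for twenty minutes, then challenged with agonist MDL29,951 at ~EC80, 500 nM. Intracellular calcium release via Gα-q was recorded as FLIPR fluorescence for a further 2 minutes; compounds tested in duplicate.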

T1 sequence (Q13304 whole entry): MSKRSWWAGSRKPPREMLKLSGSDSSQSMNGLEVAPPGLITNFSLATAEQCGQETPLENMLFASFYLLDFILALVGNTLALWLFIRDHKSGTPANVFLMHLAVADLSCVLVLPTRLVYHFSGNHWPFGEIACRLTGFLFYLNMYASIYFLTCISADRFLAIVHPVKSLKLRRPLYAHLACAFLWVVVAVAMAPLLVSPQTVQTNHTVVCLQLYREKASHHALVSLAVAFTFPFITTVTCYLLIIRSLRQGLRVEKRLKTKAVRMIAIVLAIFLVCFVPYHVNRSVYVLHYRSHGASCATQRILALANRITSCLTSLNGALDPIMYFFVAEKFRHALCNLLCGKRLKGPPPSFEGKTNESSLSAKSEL

| pIC50 | SMILES |
| --- | --- |
| > 6.30 | N#Cc1ccc(NS(=O)(=O)c2c[nH]cc2Cc2ccc(F)c(Cl)c2)c(F)c1 [Cpd 545, 4-[(3-chloro-4-fluorophenyl)methyl]-N-(4-cyano-2-fluorophenyl)-1H-pyrrole-3-sulfonamide] |
| > 6.30 | N#Cc1ccc(NS(=O)(=O)c2c[nH]cc2Cc2cc(F)cc(F)c2)c(F)c1 [Cpd 546, N-(4-cyano-2-fluorophenyl)-4-[(3,5-difluorophenyl)methyl]-1H-pyrrole-3-sulfonamide] |
| 5.30 to 6.30 | COc1cc(F)cc(Cc2c[nH]cc2S(=O)(=O)Nc2ccc(C#N)cc2F)c1 [Cpd 547, N-(4-cyano-2-fluorophenyl)-4-[(3-fluoro-5-methoxyphenyl)methyl]-1H-pyrrole-3-sulfonamide] |
| > 6.30 | N#Cc1cc(F)c(NS(=O)(=O)c2c[nH]cc2Cc2cccc(OC(F)F)c2)cc1F [Cpd 548, N-(4-cyano-2,5-difluorophenyl)-4-[[3-(difluoromethoxy)phenyl]methyl]-1H-pyrrole-3-sulfonamide] |
| > 6.30 | N#Cc1ccc(F)c(-c2cc(S(=O)(=O)Nc3cc(F)c(C(F)(F)F)cc3F)c[nH]2)c1 [Cpd 554, 5-(5-cyano-2-fluorophenyl)-N-[2,5-difluoro-4-(trifluoromethyl)phenyl]-1H-pyrrole-3-sulfonamide] |
| > 6.30 | Cn1cccc(-c2cc(S(=O)(=O)Nc3cc(F)c(C(F)(F)F)cc3F)c[nH]2)c1=O [Cpd 555, N-[2,5-difluoro-4-(trifluoromethyl)phenyl]-5-(1-methyl-2-oxopyridin-3-yl)-1H-pyrrole-3-sulfonamide] |
| 5.30 to 6.30 | O=S(=O)(Nc1cc(F)c(C(F)(F)F)cc1F)c1c[nH]cc1Cc1cccc(OC(F)F)c1 [Cpd 558, 4-[[3-(difluoromethoxy)phenyl]methyl]-N-[2,5-difluoro-4-(trifluoromethyl)phenyl]-1H-pyrrole-3-sulfonamide] |
| 4.30 to 5.30 | COCc1cccnc1-c1cc(S(=O)(=O)Nc2cc(F)c(C(F)(F)F)cc2F)c[nH]1 [Cpd 560, N-[2,5-difluoro-4-(trifluoromethyl)phenyl]-5-[3-(methoxymethyl)pyridin-2-yl]-1H-pyrrole-3-sulfonamide] |
| 5.30 to 6.30 | O=S(=O)(Nc1cc(F)c(Br)cc1F)c1c[nH]c(-c2cccc3ccoc23)c1 [Cpd 561, 5-(1-benzofuran-7-yl)-N-(4-bromo-2,5-difluorophenyl)-1H-pyrrole-3-sulfonamide] |
| > 6.30 | N#Cc1ccc(NS(=O)(=O)c2c[nH]c(-c3csc(Cl)c3)c2)c(F)c1 [Cpd 562, 5-(5-chlorothiophen-3-yl)-N-(4-cyano-2-fluorophenyl)-1H-pyrrole-3-sulfonamide] |
| > 6.30 | N#Cc1ccc(NS(=O)(=O)c2c[nH]c(-c3cc(Cl)cs3)c2)c(F)c1 [Cpd 563, 5-(4-chlorothiophen-2-yl)-N-(4-cyano-2-fluorophenyl)-1H-pyrrole-3-sulfonamide] |
| 5.30 to 6.30 | N#Cc1cccc(-c2cc(S(=O)(=O)Nc3cc(F)c(C(F)(F)F)cc3F)c[nH]2)c1F [Cpd 564, 5-(3-cyano-2-fluorophenyl)-N-[2,5-difluoro-4-(trifluoromethyl)phenyl]-1H-pyrrole-3-sulfonamide] |
| 5.30 to 6.30 | O=S(=O)(Nc1cc(F)c(C(F)(F)F)cc1F)c1c[nH]cc1Cc1cccc(Cl)c1 [Cpd 568, 4-[(3-chlorophenyl)methyl]-N-[2,5-difluoro-4-(trifluoromethyl)phenyl]-1H-pyrrole-3-sulfonamide] |
| > 6.30 | N#Cc1cc(F)c(NS(=O)(=O)c2c[nH]cc2Cc2cccc(Cl)c2)cc1F [Cpd 569, 4-[(3-chlorophenyl)methyl]-N-(4-cyano-2,5-difluorophenyl)-1H-pyrrole-3-sulfonamide] |
| > 6.30 | N#Cc1ccc(NS(=O)(=O)c2c[nH]c(-c3ccc(F)s3)c2)c(F)c1 [Cpd 570, N-(4-cyano-2-fluorophenyl)-5-(5-fluorothiophen-2-yl)-1H-pyrrole-3-sulfonamide] |
| > 6.30 | N#Cc1cc(F)c(NS(=O)(=O)c2c[nH]c(-c3cccc4ccsc34)c2)cc1F [Cpd 572, 5-(1-benzothiophen-7-yl)-N-(4-cyano-2,5-difluorophenyl)-1H-pyrrole-3-sulfonamide] |

The next lines start with the molecule.

| SMILES | pIC50 |
| --- | --- |
| N#Cc1cc(F)c(NS(=O)(=O)c2c[nH]c(C3CCC3)c2)cc1F [Cpd 549, N-(4-cyano-2,5-difluorophenyl)-5-cyclobutyl-1H-pyrrole-3-sulfonamide] | > 6.30 |
| O=S(=O)(Nc1cc(F)c(OC(F)F)cc1F)c1c[nH]c(C2CCC2)c1 [Cpd 550, 5-cyclobutyl-N-[4-(difluoromethoxy)-2,5-difluorophenyl]-1H-pyrrole-3-sulfonamide] | > 6.30 |
| O=S(=O)(Nc1cc(F)c(Br)cc1F)c1c[nH]c(C2CCC2)c1 [Cpd 551, N-(4-bromo-2,5-difluorophenyl)-5-cyclobutyl-1H-pyrrole-3-sulfonamide] | > 6.30 |
| O=S(=O)(Nc1cc(F)c(OC(F)F)cc1F)c1c[nH]c(-c2cccc3cccnc23)c1 [Cpd 552, N-[4-(difluoromethoxy)-2,5-difluorophenyl]-5-quinolin-8-yl-1H-pyrrole-3-sulfonamide] | 5.30 to 6.30 |
| O=S(=O)(Nc1cc(F)c(OC(F)F)cc1F)c1c[nH]c(-c2cccc3ccoc23)c1 [Cpd 553, 5-(1-benzofuran-7-yl)-N-[4-(difluoromethoxy)-2,5-difluorophenyl]-1H-pyrrole-3-sulfonamide] | 5.30 to 6.30 |
| O=S(=O)(Nc1cc(F)c(C(F)(F)F)cc1F)c1c[nH]c(-c2cnccc2Cl)c1 [Cpd 556, 5-(4-chloropyridin-3-yl)-N-[2,5-difluoro-4-(trifluoromethyl)phenyl]-1H-pyrrole-3-sulfonamide] | > 6.30 |
| O=S(=O)(Nc1cc(F)c(C(F)(F)F)cc1F)c1c[nH]c(-c2c(F)ccnc2F)c1 [Cpd 557, 5-(2,4-difluoropyridin-3-yl)-N-[2,5-difluoro-4-(trifluoromethyl)phenyl]-1H-pyrrole-3-sulfonamide] | > 6.30 |
| O=S(=O)(Nc1cc(F)c(C(F)(F)F)cc1F)c1c[nH]c(-c2cnsc2)c1 [Cpd 559, N-[2,5-difluoro-4-(trifluoromethyl)phenyl]-5-(1,2-thiazol-4-yl)-1H-pyrrole-3-sulfonamide] | > 6.30 |
| O=S(=O)(Nc1cc(F)c(C(F)(F)F)cc1F)c1c[nH]c(-c2cccn3ccnc23)c1 [Cpd 565, N-[2,5-difluoro-4-(trifluoromethyl)phenyl]-5-imidazo[1,2-a]pyridin-8-yl-1H-pyrrole-3-sulfonamide] | 5.30 to 6.30 |
| O=S(=O)(Nc1cc(F)c(C(F)(F)F)cc1F)c1c[nH]c(-c2cccc3ccnn23)c1 [Cpd 566, N-[2,5-difluoro-4-(trifluoromethyl)phenyl]-5-pyrazolo[1,5-a]pyridin-7-yl-1H-pyrrole-3-sulfonamide] | 5.30 to 6.30 |
| O=S(=O)(Nc1cc(F)c(C(F)(F)F)cc1F)c1c[nH]c(-c2ccc3cccnn23)c1 [Cpd 567, N-[2,5-difluoro-4-(trifluoromethyl)phenyl]-5-pyrrolo[1,2-b]pyridazin-7-yl-1H-pyrrole-3-sulfonamide] | > 6.30 |
| CC1(C)CC(c2cc(S(=O)(=O)Nc3cc(F)c(C(F)(F)F)cc3F)c[nH]2)C1 [Cpd 571, N-[2,5-difluoro-4-(trifluoromethyl)phenyl]-5-(3,3-dimethylcyclobutyl)-1H-pyrrole-3-sulfonamide] | 4.30 to 5.30 |
| O=S(=O)(Nc1cc(F)c(C(F)(F)F)cc1F)c1c[nH]c(-c2ncccc2CF)c1 [Cpd 573, N-[2,5-difluoro-4-(trifluoromethyl)phenyl]-5-[3-(fluoromethyl)pyridin-2-yl]-1H-pyrrole-3-sulfonamide] | 5.30 to 6.30 |
